Data taken from patent US20240410898A1, “METHOD FOR DETECTING PROTEIN HAVING CHANGES IN ENERGY STATE, OR AFFINITY OF LIGAND TO PROTEIN” (DALIAN INSTITUTE OF CHEMICAL PHYSICS, CHINESE ACADEMY OF …, priority 2022, published 2024).

Experiments:
[1] = test system: metal ion-binding proteins in HeLa cell lysate; experiment: PELSA, zinc chloride-treated HeLa cell lysate; conditions: 30 μM zinc chloride
Protocol: After cell lysis following the procedure described in Example 1, the added EDTA was removed using Zeba Spin desalting columns (Thermo Fisher Scientific) through two rounds of protein desalting. A final concentration of 30 μM zinc chloride (Sigma, catalog number 450111-10G) was added to the 50 μL cell lysate, serving as the experimental group. Proteins meeting the criteria of −log 10Pvalue>3 and log 2FC<−0.5 were considered as proteins stabilized by Zn2+.

[2] = test system: metal ion-binding proteins in HeLa cell lysate; experiment: PELSA, zinc chloride-treated HeLa cell lysate; conditions: −log 10Pvalue>6 and log 2FC>0
[3] = test system: proteins of Escherichia coli; conditions: Piazza I et al., Cell, 2018; cited from earlier work
SLC1A5 = target: T1, SLC1A5 (Homo sapiens, UniProt Q15758); experiment: PELSA, leucine-treated K562 cell lysate, SLC1A5; assay type: binding; conditions: 5 mM leucine
T1 construct: Protein-level volcano plot corresponding to 5 mM leucine-treated K562 cell lysates; endogenous in cells; host or cells: K562 cell lysate
T1 sequence (Q15758 1-541): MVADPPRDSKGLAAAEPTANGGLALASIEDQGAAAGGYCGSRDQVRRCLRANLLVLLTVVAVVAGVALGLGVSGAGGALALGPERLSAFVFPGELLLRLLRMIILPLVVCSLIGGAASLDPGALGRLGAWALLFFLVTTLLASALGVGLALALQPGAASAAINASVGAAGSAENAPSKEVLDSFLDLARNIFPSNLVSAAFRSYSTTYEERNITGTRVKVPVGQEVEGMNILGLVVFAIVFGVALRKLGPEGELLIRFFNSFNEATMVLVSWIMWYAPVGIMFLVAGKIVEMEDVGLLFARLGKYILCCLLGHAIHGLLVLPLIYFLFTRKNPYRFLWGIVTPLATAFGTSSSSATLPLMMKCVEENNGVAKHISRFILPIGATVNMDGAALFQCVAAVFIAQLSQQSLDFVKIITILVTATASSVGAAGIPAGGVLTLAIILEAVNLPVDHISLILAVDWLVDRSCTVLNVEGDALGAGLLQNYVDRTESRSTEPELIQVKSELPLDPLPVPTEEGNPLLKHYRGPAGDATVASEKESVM
Description: (§1) These findings indicate the ability of PELSA to differentiate between distinct binding sites on a single protein. […] SLC1A5 is a membrane protein comprising intracellular, transmembrane, and extracellular regions. The Na-dicarboxylate_symporter domain (residues 54-483), located in the extracellular region, plays a key role in amino acid transport.

[4] = test system: LARS1, LARS2, GLUD1, and SENS2; experiment: PELSA, leucine-treated K562 cell lysate, known targets; assay type: binding; conditions: 5 mM leucine
Description: as §1

PPIP5K1 and PPIP5K2 = experiment: PELSA, leucine-treated K562 cell lysate, PPIP5K1/2; assay type: binding; conditions: 5 mM leucine, histidine phosphatase domains
Description: as §1

LARS1 = LARS1 (Homo sapiens, UniProt Q9P2J5); conditions: Kim S, et al., Cell Reports, 2021; read-out: dissociation constant, leucine-LARS1; cited from earlier work
[5] = test system: proteins containing the SH2 domain; experiment: pulldown experiment with Biotin-pYEEI, BT474 cell lysate; assay type: binding; conditions: 100 μM Biotin-pYEEI
Protocol: The pulldown experiment was conducted as follows: The cell lysate is from BT474 cells, and the cell lysis was performed as described in Example 1. […] Two additional 100 μL samples were treated with Biotin-pSEEI at a final concentration of 100 μM and Biotin-YEEI at a final concentration of 100 μM, respectively, serving as control groups. This process was repeated three times, and the samples were incubated with ligands at room temperature for 30 minutes. After incubation, 200 μL of avidin beads (Thermo, USA) were added to each group and incubated overnight at 4° C. Subsequently, the beads were washed four times with a washing buffer (1% phosphatase inhibitor, and 0.5% NP40 in PBS), followed by four washes with a cell lysis buffer (1% phosphatase inhibitor in PBS solution). The proteins were eluted by adding 100 μL of HEPES buffer (pH 8.2) containing 8M guanidine hydrochloride, and the elution step was repeated twice. The eluted proteins were alkylated by adding 10 mM TCEP and 40 mM CAA, followed by heating at 95° C. for 5 minutes. The eluted protein solution was transferred to an ultrafiltration unit and centrifuged at 14,000 g for 30 minutes to remove the buffer. The ultrafiltration membrane was washed twice with 200 μL of a 10 mM ammonium bicarbonate (NH4HCO3) buffer. […]

PTPN11 = PTPN11 (Homo sapiens, UniProt Q06124); experiment: PELSA compared with LiP-MS, SHP099-treated HeLa cell lysate; assay type: binding
ERBB2 [6] = target: T2, ERBB2 (Homo sapiens, UniProt P04626); experiment: PELSA, lapatinib-treated BT474 cell lysate; assay type: binding
PTGES2 [7] = target: T3, PTGES2 (Homo sapiens, UniProt Q9H7Z7); experiment: PELSA, lapatinib-treated BT474 cell lysate, non-kinase off-target; conditions: high concentrations of lapatinib
Protocol: (1) Take a dish of BT474 cells (approximately 5e7 cells) and resuspend them in 1 mL lysis buffer (PBS supplemented with 1% (v/v) protease inhibitor (Sigma, catalog number P8340-5 mL)). Freeze-thaw the mixture three times (freeze in liquid nitrogen for two minutes, thaw in a 37° C. water bath for two minutes, repeat three times) to obtain crude cell lysates. Centrifuge the crude cell lysates at 500 g, 4° C. for 10 minutes, and collect the supernatant as the cell lysate. Determine the protein concentration using the Pierce™ 660 nm Protein Assay (Thermo, USA).
(2) Adjust the protein concentration of the cell lysate to 1 mg/mL using cell lysis buffer. […]
(6) The above-mentioned peptide mixture was reconstituted in 20 μL of 0.1% (v/v) formic acid (Sigma, Catalog No. V900803) and subjected to LC-MS/MS analysis. Each sample was analyzed once using data-independent acquisition (DIA) mass spectrometry. The Spectronaut software was used to identify and quantify the peptides, providing information on the corresponding protein, the peptide's location within the protein, and its abundance in each sample.
(7) The abundance of peptides in the lapatinib-treated and untreated groups was statistically evaluated using Empirical Bayes t-test to determine the P-value and fold change for each peptide, representing the significance and magnitude of the peptide's abundance change upon lapatinib treatment. […]

[8] = test system: CHEK2, SLK, RIPK2, and YES1; experiment: PELSA, lapatinib-treated BT474 cell lysate, off-target kinases; assay type: binding; conditions: increased lapatinib concentration (1 μM and above)
PTGES2 [9] = target: T3, PTGES2; experiment: Western blotting of undigested PTGES2 after trypsin digestion; assay type: binding; parameters: collect the supernatant as the cell lysate; endogenous in cells; host or cells: BT474 cell lysate
Protocol: To validate the binding of PTGES2 and lapatinib, we performed Western blotting using a similar procedure and conditions as mentioned above, with the following modifications: The lysis buffer is PBS. After lysis, the resulting cell lysates were divided into 8 portions and treated with equal volumes of lapatinib at different final concentrations (lapatinib dissolved in DMSO), as well as DMSO, resulting in final lapatinib concentrations of 100 μM, 50 μM, 10 μM, 1 μM, 0.1 μM, 0.01 μM, 0.001 μM, and 0. The mixtures were incubated at room temperature (25° C.) for 30 minutes. After incubation, trypsin was added at a 1:40 protease-to-protein weight ratio, and the mixture was subjected to digestion at 37° C. for 1 minute. The digestion was terminated by heating the samples to 95° C., followed by the addition of ¼ volume of 5*loading buffer, and heating at 95° C. for another 5 minutes. Western blotting was employed to detect the undigested proteins. The gel was concentrated at 80 V for 20 minutes, and then separated at 120 V for 60 minutes. Transfer blotting was conducted at a constant current of 250 mA for 40 minutes. After blocking, the primary antibody against PTGES2 (Proteintech, USA) was added at a 1:800 dilution and incubated at room temperature for 1 hour. […] The undigested protein bands were quantified based on their intensities, using GAPDH as a reference protein. […]

ERBB2 [10] = target: T2, ERBB2; conditions: cited from earlier work
[11] = test system: kinases in K562 and HeLa lysates
Description: (§3) We further compared the protein and peptide coverage depths of LiP-Quant, TPP, and PELSA.

[12] = test system: kinases in HeLa cell lysates; conditions: kinase proportion ≥80%; cited from earlier work
[13] = test system: kinases in K562 cell lysates; conditions: cited from earlier work
[14] = test system: kinases in HeLa cell lysate; conditions: 20 μM staurosporine
Description: as §3

[15] = test system: kinases in K562 cell lysate; experiment: PELSA, staurosporine-treated K562 cell lysate; assay type: binding; conditions: 20 μM staurosporine
Description: as §3

MAT2A = target: T4, MAT2A (Homo sapiens, UniProt P31153); experiment: thermal shift assay with purified MAT2A; assay type: binding; conditions: purified protein
T4 construct: made in house
Description: (§2) HSP90 proteins consist of three domains: the N-terminal ATP-binding domain, the middle domain, and the C-terminal domain. […] This finding further supports the capability of PELSA to accurately identify protein regions with changes in energy state. In addition to known target proteins, PELSA also identified several off-target proteins. […] PRDX family proteins play a protective role by clearing ROS under oxidative stress conditions.

MAT2A and AKR1C2 = experiment: dimethyl labeling-based PELSA, MAT2A and AKR1C2; assay type: binding; conditions: 100 μM
AKR1C2 = target: T5, AKR1C2 (Homo sapiens, UniProt P52895); experiment: thermal shift assay with purified AKR1C2; assay type: binding; conditions: purified protein
T5 construct: made in house
T5 sequence (P52895 1-323): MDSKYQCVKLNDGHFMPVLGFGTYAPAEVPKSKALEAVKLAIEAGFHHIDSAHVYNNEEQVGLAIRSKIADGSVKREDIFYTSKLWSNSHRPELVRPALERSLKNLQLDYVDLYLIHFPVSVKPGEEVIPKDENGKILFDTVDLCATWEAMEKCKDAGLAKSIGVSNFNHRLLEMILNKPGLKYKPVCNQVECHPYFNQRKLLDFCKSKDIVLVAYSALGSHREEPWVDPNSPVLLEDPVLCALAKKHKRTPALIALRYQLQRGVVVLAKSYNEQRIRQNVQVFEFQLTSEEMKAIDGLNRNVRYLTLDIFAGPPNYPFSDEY
Description: as §2

T2 sequence (P04626 23-1255): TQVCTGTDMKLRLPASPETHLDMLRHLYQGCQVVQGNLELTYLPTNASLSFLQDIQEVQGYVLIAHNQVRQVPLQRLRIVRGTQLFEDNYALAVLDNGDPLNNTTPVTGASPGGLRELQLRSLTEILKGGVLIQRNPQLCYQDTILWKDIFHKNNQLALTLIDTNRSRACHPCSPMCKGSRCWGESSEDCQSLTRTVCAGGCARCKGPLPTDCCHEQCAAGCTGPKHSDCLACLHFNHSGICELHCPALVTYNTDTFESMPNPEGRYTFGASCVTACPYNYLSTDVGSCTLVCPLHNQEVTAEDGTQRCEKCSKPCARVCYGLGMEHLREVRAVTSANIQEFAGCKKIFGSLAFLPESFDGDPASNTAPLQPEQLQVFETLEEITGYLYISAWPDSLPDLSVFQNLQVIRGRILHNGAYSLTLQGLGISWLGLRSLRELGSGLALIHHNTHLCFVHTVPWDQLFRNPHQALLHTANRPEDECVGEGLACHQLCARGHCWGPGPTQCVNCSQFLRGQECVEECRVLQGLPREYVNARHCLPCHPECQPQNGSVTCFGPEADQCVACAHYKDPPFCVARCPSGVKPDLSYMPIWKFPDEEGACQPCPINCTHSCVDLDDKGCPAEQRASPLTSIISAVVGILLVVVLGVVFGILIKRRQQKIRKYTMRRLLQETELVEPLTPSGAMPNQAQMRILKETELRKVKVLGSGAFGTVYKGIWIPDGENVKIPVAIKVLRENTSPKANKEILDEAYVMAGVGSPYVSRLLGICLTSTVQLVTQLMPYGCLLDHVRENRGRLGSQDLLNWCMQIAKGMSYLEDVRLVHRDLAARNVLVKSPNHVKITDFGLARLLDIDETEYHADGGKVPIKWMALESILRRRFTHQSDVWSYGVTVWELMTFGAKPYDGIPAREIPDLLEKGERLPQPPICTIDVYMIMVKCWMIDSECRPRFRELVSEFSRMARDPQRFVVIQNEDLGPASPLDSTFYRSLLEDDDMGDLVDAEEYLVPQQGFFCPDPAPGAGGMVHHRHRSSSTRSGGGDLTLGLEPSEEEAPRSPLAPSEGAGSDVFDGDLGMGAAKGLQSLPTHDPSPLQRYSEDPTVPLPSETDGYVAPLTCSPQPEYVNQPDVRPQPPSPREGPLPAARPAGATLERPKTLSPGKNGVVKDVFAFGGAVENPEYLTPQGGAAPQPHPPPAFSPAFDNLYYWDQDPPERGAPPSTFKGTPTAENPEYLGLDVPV
T3 sequence (Q9H7Z7 whole entry): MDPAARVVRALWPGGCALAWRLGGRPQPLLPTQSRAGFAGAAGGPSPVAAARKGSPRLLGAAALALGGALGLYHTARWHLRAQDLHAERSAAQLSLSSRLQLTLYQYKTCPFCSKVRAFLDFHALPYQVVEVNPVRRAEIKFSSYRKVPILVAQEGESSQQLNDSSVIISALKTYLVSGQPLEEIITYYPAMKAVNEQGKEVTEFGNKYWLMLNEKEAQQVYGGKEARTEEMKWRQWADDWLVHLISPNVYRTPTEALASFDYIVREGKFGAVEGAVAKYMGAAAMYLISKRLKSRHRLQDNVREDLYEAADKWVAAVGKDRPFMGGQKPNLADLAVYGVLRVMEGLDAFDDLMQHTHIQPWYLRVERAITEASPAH
T4 sequence (P31153 whole entry): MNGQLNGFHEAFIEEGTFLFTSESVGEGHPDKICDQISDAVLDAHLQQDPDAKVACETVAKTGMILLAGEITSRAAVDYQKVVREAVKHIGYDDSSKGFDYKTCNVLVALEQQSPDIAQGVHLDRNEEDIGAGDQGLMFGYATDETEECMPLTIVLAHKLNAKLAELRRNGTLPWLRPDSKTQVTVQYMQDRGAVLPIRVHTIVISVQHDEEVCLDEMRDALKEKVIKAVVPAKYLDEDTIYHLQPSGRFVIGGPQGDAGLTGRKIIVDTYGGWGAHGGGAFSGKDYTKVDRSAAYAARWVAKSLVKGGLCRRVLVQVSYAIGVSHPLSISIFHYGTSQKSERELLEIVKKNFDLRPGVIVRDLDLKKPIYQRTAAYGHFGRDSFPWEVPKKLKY
Chain of LARS1 (Q9P2J5 whole entry, species assumed, the tested form may be a part): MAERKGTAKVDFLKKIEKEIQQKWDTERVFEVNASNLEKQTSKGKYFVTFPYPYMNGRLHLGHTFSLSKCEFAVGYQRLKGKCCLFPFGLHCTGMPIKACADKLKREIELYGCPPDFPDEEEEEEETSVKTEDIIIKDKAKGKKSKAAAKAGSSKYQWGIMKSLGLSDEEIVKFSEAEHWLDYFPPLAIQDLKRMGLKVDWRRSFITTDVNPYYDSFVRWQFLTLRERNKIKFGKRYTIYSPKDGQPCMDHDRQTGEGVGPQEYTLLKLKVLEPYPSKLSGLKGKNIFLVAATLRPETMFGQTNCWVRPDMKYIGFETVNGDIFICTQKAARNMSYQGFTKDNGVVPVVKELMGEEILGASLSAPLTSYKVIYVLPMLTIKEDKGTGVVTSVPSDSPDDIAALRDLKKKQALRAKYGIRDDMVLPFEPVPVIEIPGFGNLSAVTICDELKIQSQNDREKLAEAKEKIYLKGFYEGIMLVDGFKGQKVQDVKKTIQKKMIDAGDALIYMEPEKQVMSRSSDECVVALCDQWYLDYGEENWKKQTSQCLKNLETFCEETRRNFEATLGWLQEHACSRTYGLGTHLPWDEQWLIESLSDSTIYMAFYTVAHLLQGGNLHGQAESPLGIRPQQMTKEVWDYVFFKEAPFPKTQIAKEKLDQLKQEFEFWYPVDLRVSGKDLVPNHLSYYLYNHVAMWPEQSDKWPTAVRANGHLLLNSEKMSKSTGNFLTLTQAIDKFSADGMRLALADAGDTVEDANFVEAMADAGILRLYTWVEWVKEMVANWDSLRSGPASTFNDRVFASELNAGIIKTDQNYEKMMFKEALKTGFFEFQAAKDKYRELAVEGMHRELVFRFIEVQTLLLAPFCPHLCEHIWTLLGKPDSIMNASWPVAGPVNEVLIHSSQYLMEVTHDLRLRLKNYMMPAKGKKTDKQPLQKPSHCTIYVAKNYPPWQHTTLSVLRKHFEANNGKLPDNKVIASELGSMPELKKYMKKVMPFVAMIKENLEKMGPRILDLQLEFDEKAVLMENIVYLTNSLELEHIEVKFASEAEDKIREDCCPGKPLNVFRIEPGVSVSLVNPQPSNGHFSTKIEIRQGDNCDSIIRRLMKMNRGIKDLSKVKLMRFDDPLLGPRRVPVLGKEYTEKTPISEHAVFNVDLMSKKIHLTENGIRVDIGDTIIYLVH

[Cl-].[Cl-].[Zn+2] [Zn2+, zinc chloride]
Zn2+-binding proteins containing zinc finger motifs [1]: 60 | stability of 26S proteasome regulatory subunits PSMC1-6 [1]: destabilization in the components of the 26S proteasome regulatory subunits | stabilized Zn2+-binding proteins [1]: 112 | stabilized known Ca2+-binding proteins [1]: 25 | stabilized known Fe2+-binding proteins [1]: 15 | stabilized known Mg2+-binding proteins [1]: 20 | stabilized known Mn2+-binding proteins [1]: 9 | stabilized known binding proteins of other metal ions [1]: 6 | stabilized proteins that are known binding proteins of other metal ions [1]: 73 | stabilized proteins that are known metal ion-binding proteins [1]: 185 | number of proteins stabilized by Zn2+ ([1]; −log 10Pvalue>3 and log 2FC<−0.5): 280 | proportion of known metal ion-binding proteins among stabilized proteins ([1]; 19% in entire identified proteome): more than 66% | stability of proteins containing IQ motifs [2]: destabilization in several proteins containing IQ motifs

alpha-ketoglutarate [αKG]
previously known αKG-binding proteins among LiP-MS targets [3]: 2 | target proteins identified by LiP-MS [3]: 34

CC(C)C[C@H](N)C(=O)O [leucine]
energy state change of SLC1A5 (SLC1A5): significant changes in the energy state of SLC1A5 | energy state changes of LARS1, LARS2, GLUD1, SENS2 [4]: significant changes in the energy states | stabilization of PPIP5K1 and PPIP5K2 (PPIP5K1 and PPIP5K2): stabilized PPIP5K1 and PPIP5K2 | Kd (LARS1): 95 µM

Phosphorylated tyrosine-glutamate-glutamate-isoleucine [pYEEI]
SH2 domain proteins determined as pYEEI-binding proteins in pulldown [5]: none of the proteins containing the SH2 domain was determined as pYEEI-binding proteins

SHP099
fold change of PTPN11 peptide at the SHP099-binding site (PTPN11; 10 μM SHP099): exhibited fold changes exclusively in PELSA experiments | number of SHP099-responsive PTPN11 peptides, PELSA relative to LiP-MS (PTPN11; 10 μM SHP099, HeLa cell lysate): 5.25 times | response magnitude of PTPN11 peptides to SHP099, PELSA relative to LiP-MS (PTPN11; 10 μM SHP099, HeLa cell lysate): 6.4 times

CS(=O)(=O)CCNCc1ccc(-c2ccc3ncnc(Nc4ccc(OCc5cccc(F)c5)c(Cl)c4)c3c2)o1 [lapatinib]
location of significantly altered ERBB2 peptides (ERBB2 [6]; 100 nM lapatinib, |log 2(fold change)|>0.3 & −log 10(P value)>2): only within or in close proximity to the kinase domain | resistance to proteolysis of peptides within the kinase domain of ERBB2 (ERBB2 [6]; lapatinib 100 μM, 10 μM and 1 μM): more resistant to proteolysis | energy state change of PTGES2 (PTGES2 [7]): exhibited changes in its energy state | energy state changes of other kinases [8]: energy state changes in several other kinases such as CHEK2, SLK, RIPK2, and YES1 | lapatinib concentration at which maximum PTGES2 protection was reached (PTGES2 [9]; Western blotting): 50 µM | PTGES2 protected from digestion (Western blot band intensity) (PTGES2 [9]; lapatinib 0.001-100 μM, trypsin 1:40, 37° C. 1 minute): increasing amount of PTGES2 protein protected from digestion | affinity of lapatinib to ERBB2 (ERBB2 [10]): approximately 9 nM

CN[C@@H]1C[C@H]2O[C@@](C)([C@@H]1OC)n1c3ccccc3c3c4c(c5c6ccccc6n2c5c31)C(=O)NC4 [staurosporine]
proportion of kinases among all target proteins ([11]; K562 and HeLa): 80% | total staurosporine target proteins in the two cell lines ([11]; K562 and HeLa): 192 | significantly changed peptides located within or within 10 residues of kinase domains ([11]; both K562 and HeLa lysates): over 92% | number of kinase targets identified by LiP-Quant [12]: 9 | number of kinase targets identified by TPP [13]: 53 | total number of target proteins identified by TPP [13]: 60 | total number of target proteins identified [14]: 135 | total number of target proteins identified [15]: 143

CC(C)c1cc(-c2n[nH]c(=O)n2-c2ccc3c(ccn3C)c2)c(O)cc1O [ganetespib]
thermal melting temperature of MAT2A (MAT2A): significantly increased | off-target proteins MAT2A and AKR1C2 (MAT2A and AKR1C2): two previously-unreported off-target proteins of ganetespib, namely MAT2A and AKR1C2 | thermal melting temperature / stabilization of AKR1C2 (AKR1C2): significantly increased
